{"source": "patent US9920373B2", "about": "“Biomarkers of response to proteasome inhibitors” (MILLENNIUM PHARMACEUTICALS, INC., priority 2011, dated 2018)", "key": {"LXFE409 xenograft": {"tested_on": "LXFE409 xenograft", "test": "Xenograft tumor growth, LXFE409", "format": "in vivo, mice (NMRI nu/nu)", "settings": "LXFE409 lung, KRAS WT", "description": "(§1) Xenografts with names beginning with LXF are from Oncotest GmbH, Freiburg, Germany. Studies with these tumors were performed at Oncotest GmbH, with MLN2238 provided by Millennium Pharmaceuticals, Inc. SW48 and SW48-K-Ras G13D cell lines were obtained from Horizon Discovery Ltd., Cambridge UK, and experiments with MLN2238 were performed at Millennium Pharmaceuticals, Inc. All other xenografts in these studies were derived from cell lines purchased from ATCC.\n(§2) Primary human tumor derived xenografts: tumors are grown by serial passage in immunocompromised mice, and no cell culture procedures were used. Freshly excised tumor fragments from xenograft-bearing mice were implanted via trochar into the subcutaneous space in the dorsal flank of recipient immunocompromised mice of the strain shown in Table 5.\n(§3) Tumor measurement: After inoculation, tumors were measured twice weekly using a vernier caliper. Tumor volumes were calculated using a standard formula (0.5×[length×width^2]). When the tumors reached a volume of approximately 150-250 mm^3, mice were randomized into treatment groups.\n(§4) Treatment period: Drug-treated group received MLN2238 by intravenous administration twice weekly for 3 weeks, at or below the maximum tolerated dose identified in tolerability studies conducted in the same strain of tumor bearing mice (strain and dose listed in table). The control group received vehicle (5% hydroxyprolyl beta-cyclodextrin) by the same route and schedule. Tumor size and body weight were measured twice a week."}, "LXFA677 xenograft": {"tested_on": "LXFA677 xenograft", "test": "Xenograft tumor growth, LXFA677", "format": "in vivo, mice (NMRI nu/nu)", "settings": "LXFA677 lung, KRAS WT; 13 mg/kg IV twice weekly 3 weeks; day 21", "description": "as §1, §2\n(§5) Tumor measurement: After inoculation, tumors were measured twice weekly using a vernier caliper. Tumor volumes were calculated using a standard formula (0.5×[length×width^2]). […]\nas §4, with “The control group received vehicle (5% hydroxyprolyl beta-cyclodextrin) by the same route and schedule.” left out"}, "NCI-H1650 xenograft": {"tested_on": "NCI-H1650 xenograft", "test": "Xenograft tumor growth, NCI-H1650", "format": "in vivo, mice (Balb/c nu/nu)", "settings": "NCI-H1650 lung, KRAS WT, 11 mg/kg IV twice weekly 3 weeks, day 21", "description": "(§6) Cell-line derived xenografts: freshly dissociated tumor cells grown using standard cell culture procedures were aseptically injected into the subcutaneous space in the dorsal flank of immunocompromised mice.\nas §3, §4"}, "NCI-H1975 xenograft": {"tested_on": "NCI-H1975 xenograft", "test": "Xenograft tumor growth, NCI-H1975", "format": "in vivo, mice (NCr-Nude)", "settings": "NCI-H1975 lung, KRAS WT; 13 mg/kg IV twice weekly; day 19", "description": "as §6, §3, §4"}, "NCI-H460 xenograft": {"tested_on": "NCI-H460 xenograft", "test": "Xenograft tumor growth, NCI-H460", "format": "in vivo, mice (NCr-Nude)", "settings": "NCI-H460 lung, Kras Q61H; 14 mg/kg IV twice weekly; day 16", "description": "as §6, §3, §4"}, "SW48-Kras G13D xenograft": {"tested_on": "SW48-Kras G13D xenograft", "test": "Xenograft tumor growth, SW48-Kras G13D", "format": "in vivo, mice (NCr-Nude)", "settings": "for Av. Volume of treated tumors (mm^3 ± SEM) / T/C (av. Volume of treated/av. Volume control): SW48-Kras G13D colon, 13 mg/kg IV twice weekly", "description": "as §1, §6, §3, §4\nThe impacts of KRas mutation on MLN2238 response in vivo were further assessed using KRas-SW48 isogenic colon cell lines (Horizon Discovery Ltd), in which KRas-G13D and KRas-G12V mutations were introduced into SW48 cells (KRas WT) by rAAV gene editing technology to generate stable cell lines. […] FIGS. 3A-3C illustrate the time course of tumor growth in a xenograft model which has a wild type KRAS (FIG. 3A) or in a matched xenograft model in which KRAS was mutated at open reading frame codon 13 or 12 (FIGS. 3B and 3C, respectively) to substitute another amino acid for glycine at each position."}, "LXFE397 xenograft": {"tested_on": "LXFE397 xenograft", "test": "Xenograft tumor growth, LXFE397", "format": "in vivo, mice (NMRI nu/nu)", "settings": "LXFE397 lung, KRAS WT; lower dose 8 mg/kg IV twice weekly 3 weeks; day 21", "description": "as §1, §2, §5\nas §4, with “The control group received vehicle (5% hydroxyprolyl beta-cyclodextrin) by the same route and schedule.” left out"}, "LXFA1335 xenograft": {"tested_on": "LXFA1335 xenograft", "test": "Xenograft tumor growth, LXFA1335", "format": "in vivo, mice (NMRI nu/nu)", "settings": "LXFA1335 lung, Kras G12C; lower dose 8 mg/kg IV twice weekly 3 weeks; day 21", "description": "as §1, §2, §5\nas §4, with “The control group received vehicle (5% hydroxyprolyl beta-cyclodextrin) by the same route and schedule.” left out"}, "LXFL1072 xenograft": {"tested_on": "LXFL1072 xenograft", "test": "Xenograft tumor growth, LXFL1072", "format": "in vivo, mice (NMRI nu/nu)", "settings": "LXFL1072 lung, Kras G12C; lower dose 8 mg/kg IV twice weekly; day 20", "description": "as §1, §2, §5\nas §4, with “The control group received vehicle (5% hydroxyprolyl beta-cyclodextrin) by the same route and schedule.” left out"}, "[1]": {"tested_on": "KRAS wild type xenografts", "test": "Xenograft panel, KRAS wild type (average)", "format": "in vivo, immunocompromised mice", "settings": "KRAS wild type colorectal and NSCLC xenografts; higher dose 11-14 mg/kg", "text": "(§7) The investigational drug MLN9708 (Kupperman et al. (2010) Cancer Res. 70:1970-1980) is an oral proteasome inhibitor currently being evaluated in Phase III trials of multiple myeloma and light chain amyloidosis and in Phase 1 and 2 trials in hematological and solid tumor malignancies. […] In many studies, MLN2238 is used as a surrogate for MLN9708. In vitro, MLN2238 is potent across a broad range of solid tumor cell types evaluated with standard cell viability and colony formation assays (Kupperman et al. supra). However, not all cell lines which respond to MLN2238 in vitro are responsive to MLN2238 when grown in vivo as xenografts in immunocompromised mice. In order to understand the contributing factors that determine in vivo sensitivity to MLN2238, a panel of 6 colon and 14 non-small cell lung (NSCLC) xenograft tumors were evaluated for mutations in cancer-related genes and for tumor pharmacokinetics and pharmacodynamic markers.\n(§8) Tumor measurement: After inoculation, tumors were measured twice weekly using a vernier caliper. Tumor volumes were calculated using a standard formula (0.5×[length×width^2]). When the tumors reached a volume of approximately 150-250 mm^3, mice were randomized into treatment groups. […]"}, "KRAS mutant xenografts": {"tested_on": "KRAS mutant xenografts", "test": "Xenograft panel, KRAS mutant (average)", "format": "in vivo, immunocompromised mice", "settings": "KRAS mutant colorectal and NSCLC xenografts; higher dose 11-14 mg/kg", "text": "as §7, §8"}, "SW48 KRas-G13D cells": {"tested_on": "SW48 KRas-G13D cells", "test": "[…]-GLO Luminescent Cell Viability Assay, SW48 KRas-G13D", "format": "cell-based", "settings": "Homo sapiens, 72 hrs of treatment, read-out: EC50 (in vitro sensitivity, cell viability)"}, "[2]": {"settings": "13 mg/kg IV twice weekly 3 weeks, day 20"}, "[3]": {"settings": "lower dose 8 mg/kg IV twice weekly 3 weeks, day 21"}}, "note": "pEC50: −log10 of the molar value. “And” between values parts separate entries of the source, which are not always exact repeats. Identical values can stand only once.", "data": [{"smiles": "CC(C)C[C@H](NC(=O)CNC(=O)c1cc(Cl)ccc1Cl)B(O)O", "note": "[MLN2238]", "values": [{"measurement": "Av. Volume of treated tumors (mm^3 ± SEM)", "setting": "LXFE409 xenograft; [2]", "value": "46.4 ± 10", "unit": "mm^3"}, {"measurement": "T/C (av. Volume of treated/av. Volume control)", "setting": "LXFE409 xenograft; [2]", "value": 0.07}, {"measurement": "Av. Volume of treated tumors (mm^3 ± SEM)", "setting": "LXFE409 xenograft; [3]", "value": "186.21 ± 22.7", "unit": "mm^3"}, {"measurement": "T/C (av. Volume of treated/av. Volume control)", "setting": "LXFE409 xenograft; [3]", "value": 0.28}, {"measurement": "Av. Volume of treated tumors (mm^3 ± SEM)", "setting": "LXFA677 xenograft", "value": "586.2 ± 82.1", "unit": "mm^3"}, {"measurement": "T/C (av. Volume of treated/av. Volume control)", "setting": "LXFA677 xenograft", "value": 0.42}, {"measurement": "Av. Volume of treated tumors (mm^3 ± SEM)", "setting": "NCI-H1650 xenograft", "value": "630.1 ± 50.4 mm^3 and 581.2 ± 55.1 mm^3"}, {"measurement": "T/C (av. Volume of treated/av. Volume control)", "setting": "NCI-H1650 xenograft", "value": "0.52 and 0.57"}, {"measurement": "Av. Volume of treated tumors (mm^3 ± SEM)", "setting": "NCI-H1975 xenograft", "value": "1230.4 ± 227.7", "unit": "mm^3"}, {"measurement": "T/C (av. Volume of treated/av. Volume control)", "setting": "NCI-H1975 xenograft", "value": 0.48}, {"measurement": "Av. Volume of treated tumors (mm^3 ± SEM)", "setting": "NCI-H460 xenograft", "value": "1301.3 ± 120.6", "unit": "mm^3"}, {"measurement": "T/C (av. Volume of treated/av. Volume control)", "setting": "NCI-H460 xenograft", "value": 1.1}, {"measurement": "Av. Volume of treated tumors (mm^3 ± SEM)", "setting": "SW48-Kras G13D xenograft; day 19", "value": "2205.1 ± 121.5", "unit": "mm^3"}, {"measurement": "T/C (av. Volume of treated/av. Volume control)", "setting": "SW48-Kras G13D xenograft; day 19", "value": 1.03}, {"measurement": "Av. Volume of treated tumors (mm^3 ± SEM)", "setting": "SW48-Kras G13D xenograft; day 20", "value": "2232.3 ± 274", "unit": "mm^3"}, {"measurement": "T/C (av. Volume of treated/av. Volume control)", "setting": "SW48-Kras G13D xenograft; day 20", "value": 1.08}, {"measurement": "sensitivity in the xenograft study", "setting": "SW48-Kras G13D xenograft; SW48 KRAS G13D mutant line, matched isogenic model", "value": "resistant"}, {"measurement": "Av. Volume of treated tumors (mm^3 ± SEM)", "setting": "LXFE397 xenograft", "value": "1017.41 ± 211.7", "unit": "mm^3"}, {"measurement": "T/C (av. Volume of treated/av. Volume control)", "setting": "LXFE397 xenograft", "value": 0.57}, {"measurement": "Av. Volume of treated tumors (mm^3 ± SEM)", "setting": "LXFA1335 xenograft", "value": "419.42 ± 45.7", "unit": "mm^3"}, {"measurement": "T/C (av. Volume of treated/av. Volume control)", "setting": "LXFA1335 xenograft", "value": 0.84}, {"measurement": "Av. Volume of treated tumors (mm^3 ± SEM)", "setting": "LXFL1072 xenograft", "value": "675.83 ± 84.5", "unit": "mm^3"}, {"measurement": "T/C (av. Volume of treated/av. Volume control)", "setting": "LXFL1072 xenograft", "value": 1.09}, {"measurement": "average Tumor to Control ratio (T/C)", "setting": "[1]", "value": 0.4}, {"measurement": "average T/C", "setting": "KRAS mutant xenografts", "value": 0.82}, {"measurement": "pEC50", "setting": "SW48 KRas-G13D cells", "value": 7.71}]}]}
